Experimental data as given in PMC3944508, “Six New Tetraprenylated Alkaloids from the South China Sea Gorgonian Echinogorgia pseudossapo” (Marine Drugs, 2014).

Legend:
Type in all cases: biochemical
[1] = target: T1, PDE4D (phosphodiesterase-4D) (Homo sapiens, UniProt Q08499); test: in vitro PDE inhibition assay (previously reported method)
PDE5A = PDE5A (Homo sapiens, UniProt O76074); test: in vitro PDE inhibition assay, % inhibition at […]; settings: read-out: Inhibition (%) of Compounds at 50 μM / PDE5A
[2] = target: T1, PDE4D (phosphodiesterase-4D); test: in vitro PDE inhibition assay, % inhibition at […]; settings: read-out: Inhibition (%) of Compounds at 50 μM / PDE4D

T1 sequence (Q08499 whole entry): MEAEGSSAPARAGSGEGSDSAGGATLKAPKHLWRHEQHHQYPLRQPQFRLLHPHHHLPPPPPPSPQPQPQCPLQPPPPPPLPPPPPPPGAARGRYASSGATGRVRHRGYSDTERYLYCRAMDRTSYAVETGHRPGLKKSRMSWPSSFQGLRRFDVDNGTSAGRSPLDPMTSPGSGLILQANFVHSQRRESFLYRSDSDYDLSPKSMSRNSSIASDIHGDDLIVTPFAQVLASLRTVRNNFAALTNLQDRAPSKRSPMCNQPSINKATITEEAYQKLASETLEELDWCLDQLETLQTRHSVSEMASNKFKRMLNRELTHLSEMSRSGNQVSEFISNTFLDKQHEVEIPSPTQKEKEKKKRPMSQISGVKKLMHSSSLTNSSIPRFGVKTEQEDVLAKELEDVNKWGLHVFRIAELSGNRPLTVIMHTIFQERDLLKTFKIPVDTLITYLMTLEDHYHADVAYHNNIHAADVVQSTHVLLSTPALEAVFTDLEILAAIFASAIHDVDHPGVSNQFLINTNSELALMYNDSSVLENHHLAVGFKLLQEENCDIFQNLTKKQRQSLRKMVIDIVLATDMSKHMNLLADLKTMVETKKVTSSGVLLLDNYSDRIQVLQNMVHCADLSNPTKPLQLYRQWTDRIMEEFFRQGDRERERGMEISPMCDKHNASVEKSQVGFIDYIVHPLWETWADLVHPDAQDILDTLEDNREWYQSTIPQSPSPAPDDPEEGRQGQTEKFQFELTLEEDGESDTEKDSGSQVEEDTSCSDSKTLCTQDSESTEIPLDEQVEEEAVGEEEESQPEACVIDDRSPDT

IC50 [1] [µM] | inhibition at 50 µM (PDE5A) [%] | inhibition at 50 µM [2] [%] | Structure (SMILES)
8.5 | 53 |  | CC(C)=CC(=O)C/C(C)=C/CC/C(C)=C/CC/C(C)=C/Cn1cnc2c1c(=O)ncn2C [compound 1, malonganenone L]
 |  | 72 | CC(C)=CC(=O)C/C(C)=C\CC/C(C)=C/CC/C(C)=C/Cn1cnc2c1c(=O)ncn2C [compound 2, malonganenone M]
 |  | 81 | CC(C)=CC(=O)/C=C(\C)CCC/C(C)=C/CC/C(C)=C/Cn1cnc2c1c(=O)ncn2C [compound 3, malonganenone N]
 |  | 79 | CNC(=O)c1c(N(C)C=O)ncn1C/C=C(\C)CC/C=C(\C)CC/C=C(\C)CC(=O)C=C(C)C [compound 4, malonganenone O]
 |  | 75 | CNC(=O)c1c(N(C)C=O)ncn1C/C=C(\C)CC/C=C(\C)CC/C=C(/C)CC(=O)C=C(C)C [compound 5, malonganenone P]
20.3 |  |  | CNC(=O)c1c(N(C)C=O)ncn1C/C=C(\C)CC/C=C(\C)CCC/C(C)=C\C(=O)C=C(C)C [compound 6, malonganenone Q]
